Experimental data: the NIST ThermoML archive (doi:10.1021/acs.jced.7b00227)

Tests used:
[1] = for Normal melting temperature: DTA
[2] = Molar enthalpy of transition or fusion; conditions: Crystal; DSC

O=Cc1ccc(O)cc1 [4-hydroxybenzaldehyde]
[1]
Conditions	vapor or sublimation pressure [kPa]
319.14 K, Crystal, Calculated from knudsen effusion weight loss	7.6e-05
321.31 K, Crystal, Calculated from knudsen effusion weight loss	0.000101
323.2 K, Crystal, Calculated from knudsen effusion weight loss	0.000124
325.16 K, Crystal, Calculated from knudsen effusion weight loss	0.000152
327.35 K, Crystal, Calculated from knudsen effusion weight loss	0.000196
329.21 K, Crystal, Calculated from knudsen effusion weight loss	0.00024
331.15 K, Crystal, Calculated from knudsen effusion weight loss	0.000305
333.36 K, Crystal, Calculated from knudsen effusion weight loss	0.000383
334.88 K, Crystal, Closed cell (Static) method	0.00047
335.2 K, Crystal, Calculated from knudsen effusion weight loss	0.000476
336.84 K, Crystal, Closed cell (Static) method	0.00058
337.14 K, Crystal, Calculated from knudsen effusion weight loss	0.000583
338.82 K, Crystal, Closed cell (Static) method	0.00072
339.28 K, Crystal, Calculated from knudsen effusion weight loss	0.000737
340.78 K, Crystal, Closed cell (Static) method	0.00089
341.2 K, Crystal, Calculated from knudsen effusion weight loss	0.00091
342.79 K, Crystal, Closed cell (Static) method	0.00109
344.73 K, Crystal, Closed cell (Static) method	0.00133
346.72 K, Crystal, Closed cell (Static) method	0.00165
348.7 K, Crystal, Closed cell (Static) method	0.00199
350.66 K, Crystal, Closed cell (Static) method	0.00241
352.65 K, Crystal, Closed cell (Static) method	0.00296
354.62 K, Crystal, Closed cell (Static) method	0.00358
356.58 K, Crystal, Closed cell (Static) method	0.00433
358.56 K, Crystal, Closed cell (Static) method	0.00525
360.53 K, Crystal, Closed cell (Static) method	0.0064
362.52 K, Crystal, Closed cell (Static) method	0.00769
364.51 K, Crystal, Closed cell (Static) method	0.00915
366.46 K, Crystal, Closed cell (Static) method	0.01071
368.43 K, Crystal, Closed cell (Static) method	0.01274
370.43 K, Crystal, Closed cell (Static) method	0.01545
372.39 K, Crystal, Closed cell (Static) method	0.01842
374.32 K, Crystal, Closed cell (Static) method	0.02206
376.26 K, Crystal, Closed cell (Static) method	0.02606
378.18 K, Metastable liquid, Closed cell (Static) method	0.03765
378.32 K, Crystal, Closed cell (Static) method	0.03067
380.28 K, Metastable liquid, Closed cell (Static) method	0.04331
380.29 K, Crystal, Closed cell (Static) method	0.03625
382.26 K, Metastable liquid, Closed cell (Static) method	0.04915
384.18 K, Metastable liquid, Closed cell (Static) method	0.05575
385.95 K, Metastable liquid, Closed cell (Static) method	0.06255
388.15 K, Metastable liquid, Closed cell (Static) method	0.07155
390.14 K, Metastable liquid, Closed cell (Static) method	0.08085
392.11 K, Closed cell (Static) method, Liquid	0.09145
393.98 K, Closed cell (Static) method, Liquid	0.1013
396.02 K, Closed cell (Static) method, Liquid	0.1156
398.08 K, Closed cell (Static) method, Liquid	0.132
399.97 K, Closed cell (Static) method, Liquid	0.1466
402.15 K, Closed cell (Static) method, Liquid	0.1659
403.9 K, Closed cell (Static) method, Liquid	0.184
406.15 K, Closed cell (Static) method, Liquid	0.2077
407.83 K, Closed cell (Static) method, Liquid	0.2288
409.81 K, Closed cell (Static) method, Liquid	0.2537
411.77 K, Closed cell (Static) method, Liquid	0.281
413.71 K, Closed cell (Static) method, Liquid	0.315
415.68 K, Closed cell (Static) method, Liquid	0.3477
417.65 K, Closed cell (Static) method, Liquid	0.3831
419.62 K, Closed cell (Static) method, Liquid	0.4264
421.57 K, Closed cell (Static) method, Liquid	0.4738
423.73 K, Closed cell (Static) method, Liquid	0.5285
425.48 K, Closed cell (Static) method, Liquid	0.5776
427.46 K, Closed cell (Static) method, Liquid	0.6379
429.41 K, Closed cell (Static) method, Liquid	0.7018

Conditions	Normal melting temperature [°C]
[1], Crystal	117.1

Conditions	Molar enthalpy of transition or fusion [kcal/mol]
[2]	5.16

O=Cc1cccc(O)c1 [3-hydroxybenzaldehyde]
[1]
Conditions	vapor or sublimation pressure [kPa]
309.13 K, Crystal, Calculated from knudsen effusion weight loss	8.9e-05
311.29 K, Crystal, Calculated from knudsen effusion weight loss	0.000118
313.21 K, Crystal, Calculated from knudsen effusion weight loss	0.00015
315.13 K, Crystal, Calculated from knudsen effusion weight loss	0.000189
317.29 K, Crystal, Calculated from knudsen effusion weight loss	0.000243
319.2 K, Crystal, Calculated from knudsen effusion weight loss	0.000308
321.13 K, Crystal, Calculated from knudsen effusion weight loss	0.00039
323.29 K, Crystal, Calculated from knudsen effusion weight loss	0.00049
324.86 K, Crystal, Closed cell (Static) method	0.00061
325.23 K, Crystal, Calculated from knudsen effusion weight loss	0.000616
326.85 K, Crystal, Closed cell (Static) method	0.00076
327.14 K, Crystal, Calculated from knudsen effusion weight loss	0.000763
328.83 K, Crystal, Closed cell (Static) method	0.00094
329.29 K, Crystal, Calculated from knudsen effusion weight loss	0.000957
330.84 K, Crystal, Closed cell (Static) method	0.00116
331.22 K, Crystal, Calculated from knudsen effusion weight loss	0.001188
332.78 K, Crystal, Closed cell (Static) method	0.00142
334.76 K, Crystal, Closed cell (Static) method	0.00176
336.76 K, Crystal, Closed cell (Static) method	0.00219
338.72 K, Crystal, Closed cell (Static) method	0.00269
340.73 K, Crystal, Closed cell (Static) method	0.00336
342.63 K, Crystal, Closed cell (Static) method	0.00405
344.71 K, Crystal, Closed cell (Static) method	0.00495
346.64 K, Crystal, Closed cell (Static) method	0.006
348.61 K, Crystal, Closed cell (Static) method	0.00733
350.55 K, Crystal, Closed cell (Static) method	0.00897
352.54 K, Crystal, Closed cell (Static) method	0.01085
354.49 K, Crystal, Closed cell (Static) method	0.01289
356.45 K, Crystal, Closed cell (Static) method	0.01575
358.45 K, Crystal, Closed cell (Static) method	0.01898
360.41 K, Crystal, Closed cell (Static) method	0.02275
362.4 K, Crystal, Closed cell (Static) method	0.02727
364.34 K, Crystal, Closed cell (Static) method	0.03226
366.32 K, Crystal, Closed cell (Static) method	0.03884
368.21 K, Crystal, Closed cell (Static) method	0.04637
368.31 K, Metastable liquid, Closed cell (Static) method	0.05807
370.35 K, Metastable liquid, Closed cell (Static) method	0.06605
372.25 K, Metastable liquid, Closed cell (Static) method	0.07435
374.24 K, Metastable liquid, Closed cell (Static) method	0.08475
376.14 K, Metastable liquid, Closed cell (Static) method	0.09434
378.15 K, Closed cell (Static) method, Liquid	0.1083
380.15 K, Closed cell (Static) method, Liquid	0.1217
382.09 K, Closed cell (Static) method, Liquid	0.1367
384.06 K, Closed cell (Static) method, Liquid	0.1536
386.07 K, Closed cell (Static) method, Liquid	0.1727
388 K, Closed cell (Static) method, Liquid	0.1931
389.95 K, Closed cell (Static) method, Liquid	0.2148
391.96 K, Closed cell (Static) method, Liquid	0.2415
395.88 K, Closed cell (Static) method, Liquid	0.3002
399.75 K, Closed cell (Static) method, Liquid	0.3687
403.71 K, Closed cell (Static) method, Liquid	0.454
405.31 K, Closed cell (Static) method, Liquid	0.49
407.66 K, Closed cell (Static) method, Liquid	0.5539
409.61 K, Closed cell (Static) method, Liquid	0.618
411.6 K, Closed cell (Static) method, Liquid	0.6754
413.56 K, Closed cell (Static) method, Liquid	0.751
415.52 K, Closed cell (Static) method, Liquid	0.814
417.46 K, Closed cell (Static) method, Liquid	0.902
419.41 K, Closed cell (Static) method, Liquid	0.994

Conditions	Normal melting temperature [°C]
[1], Crystal	104.5

Conditions	Molar enthalpy of transition or fusion [kcal/mol]
[2]	6.12

O=Cc1ccccc1O [2-hydroxybenzaldehyde]
[1]
Conditions	vapor or sublimation pressure [kPa]
264.55 K, Crystal, Closed cell (Static) method	0.00232
266.52 K, Crystal, Closed cell (Static) method	0.00319
266.54 K, Metastable liquid, Closed cell (Static) method	0.00505
268.49 K, Crystal, Closed cell (Static) method	0.00453
268.5 K, Metastable liquid, Closed cell (Static) method	0.00606
270.45 K, Crystal, Closed cell (Static) method	0.00599
270.45 K, Metastable liquid, Closed cell (Static) method	0.00727
272.44 K, Metastable liquid, Closed cell (Static) method	0.00884
274.4 K, Closed cell (Static) method, Liquid	0.01038
276.37 K, Closed cell (Static) method, Liquid	0.01235
278.29 K, Closed cell (Static) method, Liquid	0.01469
280.27 K, Closed cell (Static) method, Liquid	0.01734
282.24 K, Closed cell (Static) method, Liquid	0.02049
284.23 K, Closed cell (Static) method, Liquid	0.02411
286.21 K, Closed cell (Static) method, Liquid	0.02842
288.16 K, Closed cell (Static) method, Liquid	0.03343
290.13 K, Closed cell (Static) method, Liquid	0.03878
292.14 K, Closed cell (Static) method, Liquid	0.0453
294.09 K, Closed cell (Static) method, Liquid	0.05232
296 K, Closed cell (Static) method, Liquid	0.06145
298.06 K, Closed cell (Static) method, Liquid	0.0702
300.04 K, Closed cell (Static) method, Liquid	0.08175
302.02 K, Closed cell (Static) method, Liquid	0.09355
304.24 K, Closed cell (Static) method, Liquid	0.1075
305.97 K, Closed cell (Static) method, Liquid	0.1228
307.92 K, Closed cell (Static) method, Liquid	0.1409
309.88 K, Closed cell (Static) method, Liquid	0.1603
311.9 K, Closed cell (Static) method, Liquid	0.1832
313.81 K, Closed cell (Static) method, Liquid	0.2071
315.78 K, Closed cell (Static) method, Liquid	0.2358
317.77 K, Closed cell (Static) method, Liquid	0.2661
319.78 K, Closed cell (Static) method, Liquid	0.3014
321.96 K, Closed cell (Static) method, Liquid	0.3441
323.95 K, Closed cell (Static) method, Liquid	0.3875
325.91 K, Closed cell (Static) method, Liquid	0.4352
327.88 K, Closed cell (Static) method, Liquid	0.4884
329.84 K, Closed cell (Static) method, Liquid	0.5465
331.84 K, Closed cell (Static) method, Liquid	0.611
333.81 K, Closed cell (Static) method, Liquid	0.682
335.78 K, Closed cell (Static) method, Liquid	0.7604
337.76 K, Closed cell (Static) method, Liquid	0.846
339.74 K, Closed cell (Static) method, Liquid	0.9402
341.67 K, Closed cell (Static) method, Liquid	1.042

Conditions	Normal melting temperature [°C]
[1], Crystal	-0.8

Conditions	Molar enthalpy of transition or fusion [kcal/mol]
[2]	3.18
